Source: patent US8486962B2, “Antifungal agents” (F2G Ltd., priority 2005, dated 2013)
Converted amounts (≈) assume the structure as drawn.

How the values were obtained:
Aspergillus terreus = assay: MIC, YAG medium, Aspergillus terreus; format: cell-based; conditions: YAG medium; for MIC: Aspergillus terreus, read-out: MIC A Terreus 4
Procedure, shortened: (§1)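 OD at 485 nm versus drug-free control defines MIC (mg/L): >80% inhibition for Candida albicans in RPMI/2% glucose/MOPS pH7.0 after 24-48 hrs at 35° C, >70% for Aspergillus strains in YAG medium after 24 hrs at 35° C. Spore inocula 1-2×10^4 cfu/ml; yeast 1-2×10^3 cfu/ml.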

Aspergillus flavus = assay: MIC, YAG medium, Aspergillus flavus; format: cell-based; conditions: YAG medium; for MIC: Aspergillus flavus, read-out: MIC A Flavus 01
Procedure, shortened: as §1

A Terreus 49 = assay: MIC, YAG medium, A Terreus 49; format: cell-based, Aspergillus terreus; conditions: Aspergillus terreus; YAG medium; read-out: MIC A Terreus 49
Method: Measurement of Minimum Inhibitory Concentrations (MICs)
Between 1 and 5 mgs of compound were accurately weighed out into a sterile Eppendorf tube. The compound was dissolved in DMSO to give a solution containing 5 mg/ml. Tubes were stored at −20° C. until required.
On the day of testing thawed solutions were vortex mixed to ensure homogeneity. 30 μl of solution was removed and added to 570 μl of sterile water in a separate sterile Eppendorf. The thoroughly mixed solution was used to prepare a series of doubling dilutions in water, in a deep well plate. Eleven replicate plates were prepared using a Minitrak by aspirating 20 μl from each well into eleven clear polystyrene 96 well plates.
Spores of Aspergillus spp (Aspergillus fumigatus, Aspergillus terreus, Aspergillus niger and Aspergillus flavus) were harvested from cultures grown on Sabarauds agar for 5 days, and resuspended in PBS/Tween 80 to approx 1×10^7 cfu/ml Other filamentous fungi (Fusarium solani, Scedosporium spp., Trichophyton spp., Absidia corymbifera), were grown on Sabarauds agar for 2-10 days and spores/hyphae resuspended in PBS/Tween to give approx 1×10^7 cfU/ml. Candida species (Candida albicans, Candida glabrata, Candida krusei, Candida parapsilosis and Candida tropicalis) were grown on Sabarauds agar, cells were harvested from the agar using a sterile loop and resuspended in PBS/Tween 80 to approx 1×10^6 cfu/ml. Each organism suspension was diluted in RPMI medium, containing 2% glucose and 0.135M MOPS buffer (pH7.0) to 2×10^4 cfu/ml for Aspergillus spp and other filamentous fungi and 2×10^3 cfu/ml for yeast. 80 μl of an organism suspension was added to each well of the plate containing drug dilutions.
This produced MIC plates with a drug range 50-0.05 mg/L and organism inocula of 1-2×10^4 cfu/ml for Aspergillus spp and other filamentous fungi and 1-2×10^3 cfu/ml for yeasts. All plates were incubated for 24-48 hrs at 35° C. Growth was assessed by monitoring the optical density at 485 nm for each well. The MIC of a compound is the lowest drug concentration that inhibits growth of an organism by >80% compared with a drug free control. MICs are recorded as mg/L. Other growth media can be used for susceptibility testing, and the activity of the described compounds can also be assessed in a medium comprising, 1% glucose, 1% ammonium chloride and 0.5% yeast extract (YAG medium). To perform MIC tests in this medium, dilutions of compounds are prepared in microtitre plates as described above. Fungal strains to be tested are grown and harvested in an identical manner to that described above, each organism suspension is then diluted in YAG medium to 2×10^4 cfu/ml for Aspergillus spp and other filamentous fungi and 2×10^3 cfu/ml for yeast. 80 μl of an organism suspension was added to each well of the plate containing drug dilutions. This produced MIC plates with a drug range 50-0.05 mg/L and organism inocula of 1-2×10^4 cfu/ml for Aspergillus spp and other filamentous fungi and 1-2×10^3 cfu/ml for yeasts. All plates were incubated for 24 hrs at 35° C. Growth was assessed by monitoring the optical density at 485 nm for each well. The MIC of a compound is the lowest drug concentration that inhibits growth of an organism by >70% compared with a drug free control. MICs are recorded as mg/L. In cases where the MIC of an organism is […]0.05 mg/L the MIC is repeated using a concentration range of 0.5-0.0005 mg/L. MIC tests in YAG medium have more clear-cut endpoints and have slightly lower MICS than those performed in RPMI medium.
The following organisms were tested: Aspergillus fumigatus AF293 and Aspergillus fumigatus AF210, Aspergillus niger, Aspergillus terreus, Aspergillus favus, Candida albicans, Candida krusei, Candida tropicalis, Candida glabrata, Candida parapsilosis, Trichophyton rubrum, Trichophyton mentagrophytes, Scedosporium prolificans, Scedosporium apiospermum, Absidia corymbifera, Fusarium solani.

Aspergillus niger = assay: MIC, YAG medium, Aspergillus niger; format: cell-based; conditions: YAG medium; for MIC: Aspergillus niger, read-out: MIC A Niger 1
Procedure, shortened: as §1

[1] = test system: Aspergillus fumigatus AF210; assay: MIC, YAG medium, Aspergillus fumigatus AF210; format: cell-based; conditions: YAG medium; for MIC: Aspergillus fumigatus, AF210, read-out: MIC A Fum. 210
Procedure, shortened: as §1

[2] = test system: Aspergillus fumigatus AF293; assay: MIC, YAG medium, Aspergillus fumigatus AF293; format: cell-based; conditions: YAG medium; for MIC: Aspergillus fumigatus, AF293, read-out: MIC A Fum. 293
Procedure, shortened: as §1

| SMILES | MIC (Aspergillus terreus) [µg/mL] | MIC (Aspergillus flavus) [µg/mL] | MIC (A Terreus 49) [µg/mL] | MIC (Aspergillus niger) [µg/mL] | MIC [1] [µg/mL] | MIC [2] [µg/mL] | MIC A Terreus (Aspergillus terreus) [mg/L] | MIC A Flavus (Aspergillus flavus) [mg/L] | MIC A Niger (Aspergillus niger) [mg/L] | MIC A Fum. 210 [1] [mg/L] | MIC A Fum. 293 [2] [mg/L] |
| --- | --- | --- | --- | --- | --- | --- | --- | --- | --- | --- | --- |
| C=CCOc1cc(F)ccc1NC(=O)C(=O)c1c(-c2ccccc2)cc2ccccn12 [Example 247, N-(2-Allyloxy-4-fluoro-phenyl)-2-oxo-2-(2-phenyl-indolizin-3-yl)-acetamide] | 0.4 (≈ 0.965 µM) | 1.6 (≈ 3.86 µM) | 0.2 (≈ 0.483 µM) | 3.1 (≈ 7.48 µM) | 3.1 (≈ 7.48 µM) | 3.1 (≈ 7.48 µM) | – | – | – | – | – |
| CN(C)c1ccc(NC(=O)C(=O)c2c(-c3ccccc3)cc3ccccn23)cn1 [Example 229, N-(6-Dimethylamino-pyridin-3-yl)-2-oxo-2-(2-phenyl-indolizin-3-yl)-acetamide] | 0.12 (≈ 0.312 µM) | 0.031 (≈ 0.0806 µM) | 0.062 (≈ 0.161 µM) | 0.12 (≈ 0.312 µM) | 0.5 (≈ 1.3 µM) | 0.5 (≈ 1.3 µM) | – | – | – | – | – |
| COc1ccccc1-c1cc2ccccn2c1C(=O)C(=O)Nc1ccc(F)cc1F [Example 269, N-(2,4-Difluoro-phenyl)-2-[2-(2-methoxy-phenyl)-indolizin-3-yl]-2-oxo-acetamide] | 0.2 (≈ 0.492 µM) | 0.2 (≈ 0.492 µM) | 0.2 (≈ 0.492 µM) | 0.1 (≈ 0.246 µM) | 1.6 (≈ 3.94 µM) | 1.6 (≈ 3.94 µM) | – | – | – | – | – |
| COc1ccc(NC(=O)C(=O)c2c(-c3ccccc3)cc3ccccn23)cc1C(C)=O [Example 282, N-(3-Acetyl-4-methoxy-phenyl)-2-oxo-2-(2-phenyl-indolizin-3-yl)-acetamide] | 0.015 (≈ 0.0364 µM) | 0.008 (≈ 0.0194 µM) | 0.004 (≈ 0.0097 µM) | 0.1 (≈ 0.242 µM) | 0.1 (≈ 0.242 µM) | 0.1 (≈ 0.242 µM) | – | – | – | – | – |
| CC(=O)c1ccc(NC(=O)C(=O)c2c(-c3ccccc3)cc3ccccn23)cc1 [Example 205, N-(4-Acetyl-phenyl)-2-oxo-2-(2-phenyl-indolizin-3-yl)-acetamide] | 0.031 (≈ 0.0811 µM) | 0.062 (≈ 0.162 µM) | 0.062 (≈ 0.162 µM) | 0.062 (≈ 0.162 µM) | 0.5 (≈ 1.31 µM) | 0.5 (≈ 1.31 µM) | – | – | – | – | – |
| O=C(Nc1ccc(F)cc1F)C(=O)c1c(-c2cccc(F)c2)cc2ccccn12 [Example 244, N-(2,4-Difluoro-phenyl)-2-[2-(3-fluoro-phenyl)-indolizin-3-yl]-2-oxo-acetamide] | 0.2 (≈ 0.507 µM) | 0.2 (≈ 0.507 µM) | 0.1 (≈ 0.254 µM) | 0.05 (≈ 0.127 µM) | > 50 | > 50 | – | – | – | – | – |
| O=C(Nc1ccc(Br)cc1)C(=O)c1c(-c2ccccc2)cc2ccccn12 [Example 204, N-(4-Bromo-phenyl)-2-oxo-2-(2-phenyl-indolizin-3-yl)-acetamide] | 0.015 (≈ 0.0358 µM) | 0.031 (≈ 0.0739 µM) | 0.015 (≈ 0.0358 µM) | 0.031 (≈ 0.0739 µM) | 0.25 (≈ 0.596 µM) | 0.25 (≈ 0.596 µM) | – | – | – | – | – |
| COc1ccc(NC(=O)C(=O)c2c(-c3ccc(C)cc3)cc3ccccn23)cc1 [Example 238, N-(4-Methoxy-phenyl)-2-oxo-2-(2-p-tolyl-indolizin-3-yl)-acetamide] | 0.015 (≈ 0.039 µM) | 0.015 (≈ 0.039 µM) | 0.008 (≈ 0.0208 µM) | 0.015 (≈ 0.039 µM) | 0.25 (≈ 0.65 µM) | 0.5 (≈ 1.3 µM) | – | – | – | – | – |
| COc1ccc(NC(=O)C(=O)c2c(-c3cccc(C)c3)cc3ccccn23)cc1 [Example 233, N-(4-Methoxy-phenyl)-2-oxo-2-(2-m-tolyl-indolizin-3-yl)-acetamide] | 0.008 (≈ 0.0208 µM) | 0.004 (≈ 0.0104 µM) | 0.004 (≈ 0.0104 µM) | 0.06 (≈ 0.156 µM) | 0.25 (≈ 0.65 µM) | 0.25 (≈ 0.65 µM) | – | – | – | – | – |
| COC(=O)c1ccc(NC(=O)C(=O)c2c(-c3ccccc3)cc3ccccn23)cc1 [Example 140, 4-[2-Oxo-2-(2-phenyl-indolizin-3-yl)-acetylamino]-benzoic acid methyl ester] | 0.031 (≈ 0.0778 µM) | 0.031 (≈ 0.0778 µM) | 0.015 (≈ 0.0376 µM) | 0.031 (≈ 0.0778 µM) | 0.12 (≈ 0.301 µM) | 0.12 (≈ 0.301 µM) | – | – | – | – | – |
| CCOC(=O)C(C)(C)NC(=O)C(=O)c1c(-c2ccccc2)cc2ccccn12 [Example 248, 2-Methyl-2-[2-oxo-2-(2-phenyl-indolizin-3-yl)-acetylamino]-propionic acid ethyl ester] | 6.25 (≈ 16.5 µM) | > 50 | 6.25 (≈ 16.5 µM) | 0.4 (≈ 1.06 µM) | 12.5 (≈ 33 µM) | 12.5 (≈ 33 µM) | – | – | – | – | – |
| O=C(Nc1cccc(-c2ncco2)c1)C(=O)c1c(-c2ccccc2)cc2ccccn12 [Example 288, N-(3-Oxazol-2-yl-phenyl)-2-oxo-2-(2-phenyl-indolizin-3-yl)-acetamide] | 0.008 (≈ 0.0196 µM) | 0.015 (≈ 0.0368 µM) | 0.004 (≈ 0.00982 µM) | 0.1 (≈ 0.245 µM) | 0.2 (≈ 0.491 µM) | 0.1 (≈ 0.245 µM) | – | – | – | – | – |
| O=C(Nc1ccc(-c2cnco2)cc1)C(=O)c1c(-c2ccccc2)cc2ccccn12 [Example 291, N-(4-Oxazol-5-yl-phenyl)-2-oxo-2-(2-phenyl-indolizin-3-yl)-acetamide] | 0.015 (≈ 0.0368 µM) | 0.03 (≈ 0.0736 µM) | 0.015 (≈ 0.0368 µM) | 0.05 (≈ 0.123 µM) | 3.1 (≈ 7.61 µM) | 0.8 (≈ 1.96 µM) | – | – | – | – | – |
| COc1ccc2cc(-c3ccccc3)c(C(=O)C(=O)Nc3ccc(C)cc3)n2c1 [Example 196, 2-(6-Methoxy-2-phenyl-indolizin-3-yl)-2-oxo-N-p-tolyl-acetamide] | 0.12 (≈ 0.312 µM) | 0.12 (≈ 0.312 µM) | 0.062 (≈ 0.161 µM) | 0.5 (≈ 1.3 µM) | 0.8 (≈ 2.08 µM) | 0.8 (≈ 2.08 µM) | – | – | – | – | – |
| Cc1c(NC(=O)C(=O)c2c(-c3ccccc3)cc3ccccn23)c(=O)n(-c2ccccc2)n1C [Example 303, N-(1,5-Dimethyl-3-oxo-2-phenyl-2,3-dihydro-1-pyrazol-4-yl)-2-oxo-2-(2-phenyl-indolizin-3-yl)-acetamide] | – | – | – | – | – | – | 25 (≈ 55.5 µM) | 50 (≈ 111 µM) | 50 (≈ 111 µM) | 50 (≈ 111 µM) | 50 (≈ 111 µM) |
